Entries after “also recorded” stand apart in the source; their conditions may differ. Read-outs that look alike come from different tables or passages of the source.
Experiments:
[1] = target: SNV endonuclease (full-length L protein) (Sin Nombre orthohantavirus, UniProt A0A059WLS4); assay: biochemical; set-up: species or system Sin Nombre virus
[2] = target: SFTSV endonuclease (full-length L protein) (Dabie bandavirus, UniProt I0DF35); assay: biochemical; set-up: species or system severe fever with thrombocytopenia syndrome virus
IBV RdRp (RNA synthesis) = format: biochemical, influenza B virus
[3] = target: IBV endonuclease (full-length IBV RdRp complex PA/PB1/PB2) (Influenza B virus, UniProt Q5V8Z9); assay: biochemical
[4] = test system: SNV L protein (RNA synthesis); format: biochemical, Sin Nombre virus
[5] = target: SFTSV L protein (RNA synthesis) (Dabie bandavirus, UniProt I0DF35); format: biochemical, severe fever with thrombocytopenia syndrome virus

O=C(O)c1cn2c(c(O)c1=O)C(=O)N1CCOC[C@H]1N2[C@@H]1c2ccccc2SCc2c1ccc(F)c2F [kCOT923, (R)-12-((S)-7,8-difluoro-6,11-dihydrodibenzo[b,e]thiepin-11-yl)-7-hydroxy-6,8-dioxo-3,4,6,8,12,12a-hexahydro-1H-[1,4]oxazino[3,4-c]pyrido[2,1-f][1,2,4]triazine-9-carboxylic acid]
IC50 ([1]; IC50 (μM) SNV (Figure 7B)): 13 ± 3 µM | IC50 ([2]; IC50 (μM) SFTSV (Figure 7B)): 41 µM | inhibition of RNA synthesis by IBV (IBV RdRp (RNA synthesis)): lack of inhibition of RNA synthesis | IC50 [3]: 0.41 ± 0.02 µM | inhibition of RNA synthesis by SNV [4]: lack of inhibition of RNA synthesis | inhibition of RNA synthesis by SFTSV [5]: lack of inhibition of RNA synthesis

CC(C)N1CN([C@H]2c3ccccc3SCc3c2ccc(F)c3F)n2ccc(=O)c(O)c2C1=O [kCPF855]
IC50 ([1]; IC50 (μM) SNV (Figure 7B)): > 100 µM | IC50 ([2]; IC50 (μM) SFTSV (Figure 7B)): > 100 µM | inhibition of RNA synthesis by IBV (IBV RdRp (RNA synthesis)): lack of inhibition of RNA synthesis | IC50 [3]: 0.71 ± 0.03 µM | inhibition of RNA synthesis by SNV [4]: lack of inhibition of RNA synthesis | inhibition of RNA synthesis by SFTSV [5]: lack of inhibition of RNA synthesis

O=C1c2c(O)c(=O)ccn2N([C@@H]2c3ccccc3CSc3ccccc32)[C@@H]2COCCN12 [kCOT912, (R)-12-((R)-6,11-dihydrodibenzo[b,e]thiepin-11-yl)-7-hydroxy-3,4,12,12a-tetrahydro-1H-[1,4]oxazino[3,4-c]pyrido[2,1-f][1,2,4]triazine-6,8-dione]
IC50 ([1]; IC50 (μM) SNV (Figure 7B)): > 100 µM | IC50 ([2]; IC50 (μM) SFTSV (Figure 7B)): > 100 µM | inhibition of RNA synthesis by IBV (IBV RdRp (RNA synthesis)): lack of inhibition of RNA synthesis | IC50 [3]: > 100 µM | inhibition of RNA synthesis by SNV [4]: lack of inhibition of RNA synthesis | inhibition of RNA synthesis by SFTSV [5]: lack of inhibition of RNA synthesis

O=C1c2c(O)c(=O)ccn2N(C2c3ccccc3SCc3c2ccc(F)c3F)C2COCCN12 [kCOT909, (R)-12-((R)-7,8-difluoro-6,11-dihydrodibenzo[b,e]thiepin-11-yl)-7-hydroxy-3,4,12,12a-tetrahydro-1H-[1,4]oxazino[3,4c]pyrido[2,1-f] [1,2,4]triazine-6,8-dione]
IC50 ([1]; IC50 (μM) SNV (Figure 7B)): > 100 µM | IC50 ([2]; IC50 (μM) SFTSV (Figure 7B)): > 100 µM | inhibition of RNA synthesis by IBV (IBV RdRp (RNA synthesis)): lack of inhibition of RNA synthesis | IC50 ([3]; IC50 (μM) IBV (Figure 7B)): 0.32 ± 0.006 µM | inhibition of RNA synthesis by SNV [4]: lack of inhibition of RNA synthesis | inhibition of RNA synthesis by SFTSV [5]: lack of inhibition of RNA synthesis

O=C1c2c(O)c(=O)ccn2N([C@@H]2c3ccccc3SCc3c2ccc(F)c3F)[C@@H]2COCCN12 [BXA, Baloxavir acid, reference compound]
concentration from which inhibition of SNV endonuclease became evident [1]: ~ 250 µM | IC50 ([1]; IC50 (μM) SNV (Figure 7B)): > 100 µM | IC50 ([1]; IC50, SNV endonuclease activity): 622 µM | IC50 ([2]; IC50 (μM) SFTSV (Figure 7B)): 16 µM | IC50 ([2]; IC50, SFTSV endonuclease activity): 16.5 µM | inhibition of RNA synthesis by IBV (IBV RdRp (RNA synthesis)): lack of inhibition of; also recorded: did not inhibit RNA synthesis | IC50 ([3]; IC50 (μM) IBV (Figure 7B)): 0.21 ± 0.006 µM | IC50 ([3]; IC50, endonuclease activity of IBV): 0.209 µM | inhibition of RNA synthesis by SNV [4]: lack of inhibition of; also recorded: did not inhibit RNA synthesis | inhibition of RNA synthesis by SFTSV [5]: lack of inhibition of; also recorded: did not inhibit RNA synthesis

Reference: publication PMC11946187 (Viruses, 2025)
